Measured values reported in patent publication US12616697B2, “Methods of treatment with myosin modulator” (MyoKardia, Inc., priority 2020, dated 2026).

Tests used:
[1] = system: participants with symptomatic oHCM; assay: EXPLORER-HCM Phase 3 double blind, randomized, placebo controlled study; type: in vivo, human
Excerpt: A subset of participants consented to participate in a CMR substudy at selected sites. Randomization was stratified according to NYHA functional classification (II or III), current treatment with β-blocker (yes or no), planned type of ergometer used during the study (treadmill or exercise bicycle), and consent for the CMR substudy (yes or no).
1) Screening period (Day −35 to Day −1): Participants will undergo a variety of general, cardiopulmonary, laboratory, symptom, and PRO assessments over 1 to 2 days in order to assess eligibility. Key Screening tests include electrocardiogram (ECG); transthoracic echocardiography (TTE) conducted at rest, with Valsalva maneuver, and post-exercise; as well as cardiopulmonary exercise testing (CPET). The following screening assessments may be repeated, as long as within the 35-days screening window: blood tests, ECG, and/or TTE. Repeat assessments are allowed if central core labs require a repeat submission due to quality and in order to better assess inclusion/exclusion values. Participants who screen fail may be considered for rescreening based on the investigator's discretion, taking into consideration the reason(s) for screen fail. One attempt at rescreening will be allowed, and all procedures must be repeated.
2) Double-blind treatment period (Day 1 [randomization] to Week 30/end of treatment [EOT]): The double-blind treatment period will include a two-step dose titration scheme designed to achieve safe and effective dosing for each participant based on their own response parameters. […] Subsequently, assessments including ECG, PK (trough plasma concentrations), and TTE will be performed at each of 7 study visits, beginning at Week 4, and read by core laboratories. At Week 8 and Week 14, the dose may be increased, decreased, or remain unchanged based upon results of Week 6 and Week 12 assessments, respectively, and based primarily on measurements of provoked left ventricular outflow tract (LVOT) gradient and bounded by a target plasma concentration (PK) range and clinical tolerability (LVEF). At Week 8, the dose may be increased to a maximum daily dose of 10 mg (ie, increase from 5 mg QD to 10 mg QD), and at Week 14 to a maximum daily dose of 15 mg (ie, increase from 10 mg QD to 15 mg QD). Dose increases are designed to be step wise and are not allowed to skip doses (eg, from 5 mg to 15 mg).
At Week 30/EOT, participants will complete CPET and post-exercise TTE. For any participants permanently discontinuing treatment prior to Week 30, an early termination (ET) visit should be conducted as soon as possible, including CPET and post-exercise TTE. Participants with ET will also be encouraged to complete all remaining study visits and assessments, including the Week 30 visit.
3) Posttreatment follow-up period (Week 30/EOT to Week 38/end of study [EOS]): When double-blind treatment ends at Week 30, participants will be contacted by phone at Week 34 and return to the site at Week 38 for an EOS visit. At the EOS visit, specified assessments will be repeated. This posttreatment follow-up period applies only to participants who are receiving study drug after Week 22.
To maintain safety throughout the double-blind treatment period, a clinic visit will occur every 2 to 4 weeks, beginning at Week 4 for an initial evaluation of clinical tolerability and safety. Clinic visits will include but are not limited to clinical evaluation (symptoms, PRO evaluations, adverse event [AE]/serious adverse event [SAE] assessment), ECGs, PK sample, TTEs, and laboratory assessments. Results of TTE performed by study site sonographers at each scheduled visit following randomization should be kept blinded to the investigator and other study site personnel. An exception may occur if left ventricular ejection fraction (LVEF)≤30% is measured at the site, then the investigator will be immediately notified and study drug will be permanently discontinued as described within the protocol. […]

[2] = system: conscious fully-instrumented dogs with normal cardiac function; assay: Cardiac reserve under acute β-AR (dobutamine) challenges in conscious instrumented dogs; type: in vivo, dog
Protocol: In addition, the effects of MAVA (at 1.5 mg/kg PO, via gavage) on cardiac reserve were evaluated via acute β-AR challenges (dobutamime: 2, 5, and 10 ug/kg/min IV) in conscious fully-instrumented (LVPV group) dogs with normal cardiac function (n=8). These challenges were performed before/after dosing (+3-hour) in control- and MAVA-treated animals both under normal cardiac physiological conditions (n=4) and under (mild) concomitant cardio-depression induced via either selective β-AR blockade (+BB, metoprolol 0.5±0.1 mg/kg PO tid; n=4) or L-type Ca2+-channel blockade (+CCB, verapamil at 5±1 mg/kg PO tid; n=4); pharmacological blockades were established for 7 days prior to the MAVA treatment. Both peak and dose-responses were evaluated at steady state.
Throughout these experiments, analog signals were digitally acquired (1000 Hz) and recorded continuously with a data acquisition/analysis system (IOX; EMKA Technologies). Heart rate (HR), end-systolic (ESP) and end-diastolic pressures (EDP), as well as the peak rates of pressure rise/decline (dP/dtmax and dP/dtmin), the contractility index (CI: dP/dt/P at dP/dtmax), and the time-constant of myocardial relaxation (tau1/2, time for 50% decay from dP/dtmin) were derived from the LV pressure signal. Meanwhile, the end-systolic (ESV) and end-diastolic volumes (EDV) were measured from the LV volume signal derived from the implanted myocardial crystals. LV volumes were derived assuming a Teichholz model, and stroke volume (SV=EDV−ESV), ejection fraction (EF=SV/EDV), as well as cardiac output (CO=SV·HR) were calculated; in a subset of animals, SV and CO values were verified from data derived from the implanted aortic flow […]. […] The slopes of the preload-recruitable stroke work (PRSW; stroke work vs. EDV) and the end-systolic pressure-volume relationships (ESPVR; end-systolic elastance, Ees) were derived by software using linear models (IOX; EMKA Technologies), and were used as load-independent inotropic indices. Ventricular load was estimated by the effective arterial elastance (Ea=ESP/SV). […]

CC(C)n1c(=O)cc(N[C@@H](C)c2ccccc2)[nH]c1=O [mavacamten, (S)-3-Isopropyl-6-((1-phenylethyl)amino)pyrimidine-2, 4(1H,3H)-dione]
Response Type 1, n (%) ([1]; Type 1 - pVO2 ≥1.5 ml/kg/min and NYHA improved ≥1, mavacamten group (n = 123)): 41 (33.3) n (%) | Response Type 2, n (%) ([1]; Type 2 - pVO2 ≥3.0 ml/kg/min and no worsening NYHA, mavacamten group (n = 123)): 29 (23.6) n (%) | Met Composite Functional Response, either type: Mavacamten vs Placebo ([1]; difference, mavacamten (n = 123) vs placebo (n = 128)): 19.4% | participants with temporary discontinuation associated with reduced ejection fraction ([1]; in vivo): 3 | patients who achieved a complete response (NYHA 1 and all LVOT gradients below 30 mmHg) ([1]; in vivo): 27% | patients who achieved a post-exercise LVOT peak gradient below 30 mmHg ([1]; in vivo): 57% | subjects with severe TEAEs, % ([1]; in vivo): 5.7% | Rates of improvement by at least one NYHA class ([1]; patients not receiving β blocker(s)): 65% | difference vs placebo in percent of patients that met the primary endpoint ([1]; patients not receiving β blocker(s) (n=29)): 52.6% | Rates of improvement by at least one NYHA class ([1]; patients receiving β blocker(s)): 65% | difference vs placebo in percent of patients that met the primary endpoint ([1]; patients receiving β blocker(s) (n=94)): 8.7% | patients who achieved NYHA class I status ([1]; placebo 21%): 65% | subjects who experienced SAEs, % ([1]; through week 30): 8.1% | Absence of MR (mitral regurgitation), Mava vs Placebo Difference (95% CI) ([1]; vs placebo): 9.0 (3.7, 14.3) % | VE/CO2 slope change from baseline ([1]; week 30, non-β blocker subgroup): −2.5 | mean change in pVO2 ([1]; week 30, those not using β blocker(s)): 2.2 mL/kg/min | VE/CO2 slope change from baseline ([1]; week 30, β blocker subgroup): −2.5 | mean change in pVO2 ([1]; week 30, β blocker subgroup): 1.1 mL/kg/min | β-AR induced acceleration of tau ([2]; at any given dP/dtmax gain): enhanced | β-AR elevations in dP/dtmax and CI ([2]; dobutamine challenge, MAVA 1.5 mg/kg PO): blunted
